Measurements from US20080200454A1, “CARBON-LINKED TETRAHYDRO-PYRAZOLO-PYRIDINE MODULATORS OF CATHEPSIN S” (priority 2007, published 2008).

Target: Recombinant human cathepsin S (CatS) (Homo sapiens, UniProt P25774)
Assay: Recombinant human cathepsin S (CatS) inhibition assay, fluorogenic substrate Z-Valine-Valine-Arginine-AMC;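 note: Baculovirus-expressed CatS in pH 5.0 sodium acetate buffer with DTT and NaCl, fluorescence read each minute over 20 min, inhibition derived from rate slope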
Details: not given

Recombinant human cathepsin S (CatS), sequence (P25774 115-331): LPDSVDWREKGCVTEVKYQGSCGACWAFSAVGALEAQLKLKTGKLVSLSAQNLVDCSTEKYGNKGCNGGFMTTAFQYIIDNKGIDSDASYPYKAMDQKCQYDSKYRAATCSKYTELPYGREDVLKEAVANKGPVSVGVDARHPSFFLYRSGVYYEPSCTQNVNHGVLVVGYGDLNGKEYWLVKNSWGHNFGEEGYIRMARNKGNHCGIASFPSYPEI

Compared with `CS(=O)(=O)N1CCc2c(c(-c3ccc(Cl)c(C#Cc4cccc5c4CNCC5)c3)nn2CCCN2CCOCC2)C1` [Example 366, 8-({2-Chloro-5-[5-(methylsulfonyl)-1-(3-morpholin-4-ylpropyl)-4,5,6,7-tetrahydro-1H-pyrazolo[4,3-c]pyridin-3-yl]phenyl}ethynyl)-1,2,3,4-tetrahydroisoquinoline], `CS(=O)(=O)N1CCc2c(c(-c3ccc(Cl)c(C#CCOc4ccccc4)c3)nn2CCCN2CCOCC2)C1` [Example 52, 3-[4-Chloro-3-(3-phenoxy-prop-1-ynyl)-phenyl]-5-methanesulfonyl-1-(3-morpholin-4-yl-propyl)-4,5,6,7-tetrahydro-1H-pyrazolo[4,3-c]pyridine] is 20-fold higher in IC50: 0.68 µM for the first, 13.5 µM for the second. The first is the more potent here.

Going from `CC(NCc1cccc(C#Cc2cc(-c3nn(CCCN4CCOCC4)c4c3CN(S(C)(=O)=O)CC4)ccc2Cl)c1)c1ccccc1` (centres unmarked) [Example 507, N-{[3-({2-Chloro-5-[5-(methylsulfonyl)-1-(3-morpholin-4-ylpropyl)-4,5,6,7-tetrahydro-1H-pyrazolo[4,3-c]pyridin-3-yl]phenyl}ethynyl)phenyl]methyl}-1-phenylethanamine] to `COC(=O)[C@H](NCc1ccc(C#Cc2cc(-c3nn(CCCN4CCOCC4)c4c3CN(S(C)(=O)=O)CC4)ccc2Cl)cc1)c1ccccc1` [Example 211, Methyl (2R)-({[4-({2-chloro-5-[5-(methylsulfonyl)-1-(3-morpholin-4-ylpropyl)-4,5,6,7-tetrahydro-1H-pyrazolo[4,3-c]pyridin-3-yl]phenyl}ethynyl)phenyl]methyl}amino)(phenyl)ethanoate], the IC50 falls from 0.57 µM to 0.11 µM (5.2-fold). The second is the more potent here.

First: COC(=O)[C@@H]1Cc2ccc(C#Cc3cc(-c4nn(CCCN5CCOCC5)c5c4CN(S(C)(=O)=O)CC5)ccc3Cl)cc2CN1C(=O)OC(C)(C)C [Example 190, 2-(1,1-Dimethylethyl) 3-methyl (3S)-7-({2-chloro-5-[5-(methylsulfonyl)-1-(3-morpholin-4-ylpropyl)-4,5,6,7-tetrahydro-1H-pyrazolo[4,3-c]pyridin-3-yl]phenyl}ethynyl)-3,4-dihydroisoquinoline-2,3(1H)-dicarboxylate]
Second: CN1CCc2ccc(C#Cc3cc(-c4nn(CCCN5CCN(c6ccccc6)CC5)c5c4CN(S(C)(=O)=O)CC5)ccc3Cl)cc2C1 [Example 226, 7-[(2-Chloro-5-{5-(methylsulfonyl)-1-[3-(4-phenylpiperazin-1-yl)propyl]-4,5,6,7-tetrahydro-1H-pyrazolo[4,3-c]pyridin-3-yl}phenyl)ethynyl]-2-methyl-1,2,3,4-tetrahydroisoquinoline]
The IC50 of the first is 37-fold higher: 1.11 µM for the first, 0.03 µM for the second.

First: CS(=O)(=O)N1CCc2c(c(-c3ccc(Cl)c(CCCN4CCOCC4)c3)nn2CCCN2CCC(N3CCCC3=O)CC2)C1 [Example 105, 1-[1-(3-{3-[4-Chloro-3-(3-morpholin-4-yl-propyl)-phenyl]-5-methanesulfonyl-4,5,6,7-tetrahydro-pyrazolo[4,3-c]pyridin-1-yl}-propyl)-piperidin-4-yl]-pyrrolidin-2-one]
Second: CS(=O)(=O)N1CCc2c(c(-c3ccc(Cl)c(C#CCCCO)c3)nn2CCCN2CCOCC2)C1 [Example 46, 5-{2-Chloro-5-[5-methanesulfonyl-1-(3-morpholin-4-yl-propyl)-4,5,6,7-tetrahydro-1H-pyrazolo[4,3-c]pyridin-3-yl]-phenyl}-pent-4-yn-1-ol]
The IC50 of the first is 5.6-fold lower: 1.43 µM for the first, 7.95 µM for the second. The first is the more potent here.

Going from `NC(=O)N1CCc2c(c(-c3ccc(Cl)c(CCc4ccc(CNCc5ccc(Cl)cc5)cc4)c3)nn2CCCN2CCOCC2)C1` [Example 476, 3-(4-Chloro-3-{2-[4-({[(4-chlorophenyl)methyl]amino}methyl)phenyl]ethyl}phenyl)-1-(3-morpholin-4-ylpropyl)-1,4,6,7-tetrahydro-5H-pyrazolo[4,3-c]pyridine-5-carboxamide] to `NC(=O)N1CCc2c(c(-c3ccc(Cl)c(C#Cc4ccc(CNCc5ccc(Cl)cc5)cc4)c3)nn2CCCN2CCN(c3ccccn3)CC2)C1` [Example 156, 3-(4-Chloro-3-{[4-({[(4-chlorophenyl)methyl]amino}methyl)phenyl]ethynyl}phenyl)-1-[3-(4-pyridin-2-ylpiperazin-1-yl)propyl]-1,4,6,7-tetrahydro-5H-pyrazolo[4,3-c]pyridine-5-carboxamide], the IC50 falls from 0.12 µM to 0.05 µM (2.4-fold).

Going from `NC(=O)C(=O)N1CCc2c(c(-c3ccc(Cl)c(C#Cc4ccc(Cl)c(C(=O)NCCCO)c4)c3)nn2CCCN2CCSCC2)C1` [Example 554, 5-[(5-{5-[Amino(oxo)acetyl]-1-(3-thiomorpholin-4-ylpropyl)-4,5,6,7-tetrahydro-1H-pyrazolo[4,3-c]pyridin-3-yl}-2-chlorophenyl)ethynyl]-2-chloro-N-(3-hydroxypropyl)benzamide] to `CS(=O)(=O)N1CCc2c(c(-c3ccc(Cl)c(C#Cc4ccc(Cl)cc4)c3)nn2CC(O)CN2CCC(N)CC2)C1` (centres unmarked) [Example 133, 1-(4-Amino-piperidin-1-yl)-3-{3-[4-chloro-3-(4-chloro-phenylethynyl)-phenyl]-5-methanesulfonyl-4,5,6,7-tetrahydro-pyrazolo[4,3-c]pyridin-1-yl}-propan-2-ol], the IC50 rises from 0.02 µM to 0.29 µM (14-fold). The first is the more potent here.

`CS(=O)(=O)N1CCc2c(c(-c3ccc(Cl)c(C#Cc4ccc(CNCc5ccc(Cl)cc5)cc4)c3)nn2CCCN2CCN(c3ccccn3)CC2)C1` [Example 179, 1-{4-[(2-Chloro-5-{5-(methylsulfonyl)-1-[3-(4-pyridin-2-ylpiperazin-1-yl)propyl]-4,5,6,7-tetrahydro-1H-pyrazolo[4,3-c]pyridin-3-yl}phenyl)ethynyl]phenyl}-N-[(4-chlorophenyl)methyl]methanamine] and `CS(=O)(=O)N1CCc2c(c(-c3ccc(Cl)c(C#Cc4ccc(CNCc5ccc(Cl)cc5)cc4)c3)nn2CCCN2CCN(c3cccc(O)c3)CC2)C1` [Example 409, 3-(4-{3-[3-(4-Chloro-3-{[4-({[(4-chlorophenyl)methyl]amino}methyl)phenyl]ethynyl}phenyl)-5-(methylsulfonyl)-4,5,6,7-tetrahydro-1H-pyrazolo[4,3-c]pyridin-1-yl]propyl}piperazin-1-yl)phenol] are the same in IC50: 0.02 µM for the first, 0.02 µM for the second.

Compared with `CS(=O)(=O)N1CCc2c(c(-c3ccc(Cl)c(C#Cc4ccc(Cl)cc4)c3)nn2CC(O)CN2CCOCC2)C1` (centres unmarked) [Example 124, 1-{3-[4-Chloro-3-(4-chloro-phenylethynyl)-phenyl]-5-methanesulfonyl-4,5,6,7-tetrahydro-pyrazolo[4,3-c]pyridin-1-yl}-3-morpholin-4-yl-propan-2-ol], `CS(=O)(=O)N1CCc2c(c(-c3ccc(Cl)c(C#Cc4ccc(CNCc5ccc(Cl)cc5)cc4)c3)nn2CCCN2CCC(c3ccccc3)CC2)C1` [Example 178, 1-{4-[(2-Chloro-5-{5-(methylsulfonyl)-1-[3-(4-phenylpiperidin-1-yl)propyl]-4,5,6,7-tetrahydro-1H-pyrazolo[4,3-c]pyridin-3-yl}phenyl)ethynyl]phenyl}-N-[(4-chlorophenyl)methyl]methanamine] is 15-fold lower in IC50: 0.15 µM for the first, 0.01 µM for the second.

Molecule `COc1ccc(S(=O)(=O)NCCCc2cc(-c3nn(CCCN4CCOCC4)c4c3CN(S(C)(=O)=O)CC4)ccc2Cl)cc1` [Example 85, N-(3-{2-Chloro-5-[5-methanesulfonyl-1-(3-morpholin-4-yl-propyl)-4,5,6,7-tetrahydro-1H-pyrazolo[4,3-c]pyridin-3-yl]-phenyl}-propyl)-4-methoxy-benzenesulfonamide] has an IC50 of 8.93 µM.

Same assay, conditions: CatS IC50

First: CN(C)C(=O)[C@@H]1Cc2ccc(C#Cc3cc(-c4nn(CCCN5CCOCC5)c5c4CN(S(C)(=O)=O)CC5)ccc3Cl)cc2CN1 [Example 193, (3S)-7-({2-Chloro-5-[5-(methylsulfonyl)-1-(3-morpholin-4-ylpropyl)-4,5,6,7-tetrahydro-1H-pyrazolo[4,3-c]pyridin-3-yl]phenyl}ethynyl)-N,N-dimethyl-1,2,3,4-tetrahydroisoquinoline-3-carboxamide]
Second: CC(C)(C)OC(=O)N1CCc2ccc(C#Cc3cc(-c4nn(CCCN5CCC(C(N)=O)CC5)c5c4CN(S(C)(=O)=O)CC5)ccc3Cl)cc2C1 [Example 374, 1,1-Dimethylethyl 7-({5-[1-{3-[4-(aminocarbonyl)piperidin-1-yl]propyl}-5-(methylsulfonyl)-4,5,6,7-tetrahydro-1H-pyrazolo[4,3-c]pyridin-3-yl]-2-chlorophenyl}ethynyl)-3,4-dihydroisoquinoline-2(1H)-carboxylate]
The IC50 of the first is 3.2-fold lower: 0.05 µM for the first, 0.16 µM for the second. The first is the more potent here.

Compared with `CS(=O)(=O)N1CCc2c(c(-c3ccc(Cl)c(C#Cc4ccc(CNCc5ccc(Cl)cc5)cc4)c3)nn2CCCN2CCC(N)CC2)C1` [Example 331, 1-{3-[3-(4-Chloro-3-{[4-({[(4-chlorophenyl)methyl]amino}methyl)phenyl]ethynyl}phenyl)-5-(methylsulfonyl)-4,5,6,7-tetrahydro-1H-pyrazolo[4,3-c]pyridin-1-yl]propyl}piperidin-4-amine], `CS(=O)(=O)N1CCc2c(c(-c3ccc(Cl)c(C#Cc4ccc(CNCc5ccc(Cl)cc5)cc4)c3)nn2CCCN2CC[S+]([O-])CC2)C1` [Example 537, 1-{4-[(2-Chloro-5-{5-(methylsulfonyl)-1-[3-(1-oxidothiomorpholin-4-yl)propyl]-4,5,6,7-tetrahydro-1H-pyrazolo[4,3-c]pyridin-3-yl}phenyl)ethynyl]phenyl}-N-[(4-chlorophenyl)methyl]methanamine] is 1.6-fold higher in IC50: 0.17 µM for the first, 0.28 µM for the second.

Going from `CS(=O)(=O)N1CCc2c(c(-c3ccc(Cl)c(C#Cc4ccc(CNCc5ccc(Cl)cc5)cc4)c3)nn2CCCN2CCS(=O)(=O)CC2)C1` [Example 398, 1-{4-[(2-Chloro-5-{1-[3-(1,1-dioxidothiomorpholin-4-yl)propyl]-5-(methylsulfonyl)-4,5,6,7-tetrahydro-1H-pyrazolo[4,3-c]pyridin-3-yl}phenyl)ethynyl]phenyl}-N-[(4-chlorophenyl)methyl]methanamine] to `CS(=O)(=O)N1CCc2c(c(-c3ccc(Cl)c(C#Cc4ccc(CNCc5ccc(Cl)cc5)cc4)c3)nn2CCCN2CCN(C(=O)c3ccccc3)CC2)C1` [Example 380, 1-[4-({2-Chloro-5-[5-(methylsulfonyl)-1-{3-[4-(phenylcarbonyl)piperazin-1-yl]propyl}-4,5,6,7-tetrahydro-1H-pyrazolo[4,3-c]pyridin-3-yl]phenyl}ethynyl)phenyl]-N-[(4-chlorophenyl)methyl]methanamine], the IC50 falls from 0.38 µM to 0.06 µM (6.3-fold).
